Results as given in patent publication US12617773B2, “Azetidin-3-ylmethanol derivatives as CCR6 receptor modulators” (Idorsia Pharmaceuticals Ltd, priority 2020, dated 2026).
pIC50: −log10 of the molar value.

Biological target: T1, human CCR6 (Homo sapiens, UniProt P51684)
T1 construct: expressed in transfected cells; host or cells: HEK-293
T1 sequence (P51684 1-374): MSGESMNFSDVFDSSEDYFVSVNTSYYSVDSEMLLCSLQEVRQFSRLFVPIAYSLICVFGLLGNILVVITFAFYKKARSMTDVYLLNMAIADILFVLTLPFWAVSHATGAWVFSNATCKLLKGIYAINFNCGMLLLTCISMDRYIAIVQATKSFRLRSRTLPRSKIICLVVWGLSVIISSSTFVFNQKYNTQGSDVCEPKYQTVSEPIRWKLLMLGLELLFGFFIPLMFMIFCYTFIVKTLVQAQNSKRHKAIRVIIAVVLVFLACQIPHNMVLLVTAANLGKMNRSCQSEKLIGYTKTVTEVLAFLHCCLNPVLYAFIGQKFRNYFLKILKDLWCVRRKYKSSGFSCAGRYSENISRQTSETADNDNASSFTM
Assay: FLIPR assay (inhibition of CCL20-induced calcium signal)
Type: cell-based
Details: HEK-293 cells expressing human CCR6; mean values where determined several times; read-out: FLIPR IC50
Procedure, shortened: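 Dye-loaded HEK-293 cells expressing human CCR6 were preincubated with compound for 30 min at room temperature in the dark, then challenged with 10 nM CCL20 (final). Fluorescence was tracked on FLIPR, and baseline-subtracted peak emission over base after agonist addition gave inhibition dose-response curves for IC50.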

SMILES	pIC50
CN1CC(C)([C@](O)(c2ccc(C(F)(C(F)(F)F)C(F)(F)F)cc2)c2cncc(-c3noc(C(C)(C)O)n3)c2)C1 [Example 537]	6.82
CN1CC(C)([C@](O)(c2ccc(S(F)(F)(F)(F)F)cc2)c2cncc(-c3noc(C(C)(C)O)n3)c2)C1 [Example 538]	6.84
CC(C)c1ccc([C@](O)(c2cncc(-c3noc(C(C)(C)O)n3)c2)C2(C)CN(C)C2)cc1F [Example 539]	7.25
CN1CC(C)([C@](O)(c2ccc(C(C)(C)C)cc2)c2cncc(-c3noc(C(C)(C)O)n3)c2)C1 [Example 540]	6.91
CN1CC(C)([C@@](O)(c2cncc(-c3noc(C(C)(C)O)n3)c2)c2ccc3sccc3c2)C1 [Example 541]	6.34
CN1CC(C)([C@](O)(c2ccc(C(F)(F)C(F)(F)F)cc2)c2cncc(-c3noc(C(C)(C)O)n3)c2)C1 [Example 542]	7.46
CN1CC(C)([C@](O)(c2ccc(C3(C)CC3)cc2)c2cncc(-c3noc(C(C)(C)O)n3)c2)C1 [Example 543]	7.64
Cc1cc([C@](O)(c2cncc(-c3noc(C(C)(C)O)n3)c2)C2(C)CN(C)C2)ccc1C(C)C [Example 544]	6.59
CN1CC(C)([C@](O)(c2ccc(OC(F)(F)F)cc2)c2cncc(-c3noc(C(C)(C)O)n3)c2)C1 [Example 545]	7.21
CC(=O)N1CCC(c2nc(-c3cncc([C@@](O)(c4ccc(Br)cc4)C4(C)CN(C)C4)c3)no2)CC1 [Example 546]	6.11
CN1CC(C)([C@](O)(c2ccc(C(C)(C)F)cc2)c2cncc(-c3noc(C(C)(C)O)n3)c2)C1 [Example 547]	6.10
CN1CC(C)([C@](O)(c2ccc(C(C)(F)F)cc2)c2cncc(-c3noc(C(C)(C)O)n3)c2)C1 [Example 548]	6.13
CN1CC(C)([C@](O)(c2ccc(C34CC(C3)C4)cc2)c2cncc(-c3noc(C(C)(C)O)n3)c2)C1 [Example 549]	7.24
CN1CC(C)([C@](O)(c2ccc(CC(F)(F)F)cc2)c2cncc(-c3noc(C4CCOCC4)n3)c2)C1 [Example 550]	7.15
CCC(C)(C)c1ccc([C@](O)(c2cncc(-c3noc(C(C)(C)O)n3)c2)C2(C)CN(C)C2)cc1 [Example 551]	6.87
CC(=O)N1CCC(c2nc(-c3cncc([C@@](O)(c4ccc(C(C)C)c(F)c4)C4(C)CN(C)C4)c3)no2)CC1 [Example 552]	7.11
CC(=O)N1CCC(c2nc(-c3cncc([C@@](O)(c4ccc(C5(C(F)(F)F)CC5)cc4)C4(C)CN(C)C4)c3)no2)CC1 [Example 553]	7.21
CC(=O)N1CCC(c2nc(-c3cncc([C@@](O)(c4ccc(OC(F)(F)F)cc4)C4(C)CN(C)C4)c3)no2)CC1 [Example 554]	6.93
CC(=O)N1CCC(c2nc(-c3cncc([C@@](O)(c4ccc(OC(C)C)cc4)C4(C)CN(C)C4)c3)no2)CC1 [Example 555]	6.01
CC(C)c1ccc([C@](O)(c2cncc(-c3noc(C(C)(C)O)n3)c2)C2(C)CN(C)C2)cc1Cl [Example 556]	6.21

SMILES	pIC50
CN1CC(C)([C@](O)(c2ccc(C3CCC3)cc2)c2cncc(-c3noc(C(C)(C)O)n3)c2)C1 [Example 557]	7.33
CC(=O)N1CCC(c2nc(-c3cncc([C@@](O)(c4ccc(C5CCC5)cc4)C4(C)CN(C)C4)c3)no2)CC1 [Example 558]	7.07
CC(=O)N1CCC(c2nc(-c3cncc([C@@](O)(c4cc(F)c(C(C)C)c(F)c4)C4(C)CN(C)C4)c3)no2)CC1 [Example 559]	7.07
CC(C)c1c(F)cc([C@](O)(c2cncc(-c3noc(C(C)(C)O)n3)c2)C2(C)CN(C)C2)cc1F [Example 560]	7.13
CC(=O)N1CCC(c2nc(-c3cncc([C@@](O)(c4ccc(OC5CCC5)cc4)C4(C)CN(C)C4)c3)no2)CC1 [Example 561]	6.12
CCC(CC)c1ccc(C(O)(c2cncc(-c3noc(C(C)(C)O)n3)c2)C2(C)CN(C)C2)cc1 (stereo not shown) [Example 562]	7.35
CCC(CC)c1ccc(C(O)(c2cncc(-c3noc(C4CCN(C(C)=O)CC4)n3)c2)C2(C)CN(C)C2)cc1 (stereo not shown) [Example 563]	7.34
CN1CC(C)(C(O)(c2ccc(CC(C)(C)C)cc2)c2cncc(-c3noc(C(C)(C)O)n3)c2)C1 (stereo not shown) [Example 564]	7.04
CC(=O)N1CCC(c2nc(-c3cncc(C(O)(c4ccc(CC(C)(C)C)cc4)C4(C)CN(C)C4)c3)no2)CC1 (stereo not shown) [Example 565]	6.94
CC(=O)N1CCC(c2nc(-c3cncc(C(O)(c4ccc(C5(C)CC5)cc4)C4(C)CN(C)C4)c3)no2)CC1 (stereo not shown) [Example 566]	6.68
CCCc1ccc([C@](O)(c2cncc(-c3noc(C(C)(C)O)n3)c2)C2(C)CN(C)C2)cc1 [Example 567]	7.23
CN1CC(C)([C@](O)(c2ccc(C3CC3)cc2)c2cncc(-c3noc(C(C)(C)O)n3)c2)C1 [Example 568]	7.01
CCc1ccc([C@](O)(c2cncc(-c3noc(C(C)(C)O)n3)c2)C2(C)CN(C)C2)cc1 [Example 569]	6.93
CCCCc1ccc([C@](O)(c2cncc(-c3noc(C(C)(C)O)n3)c2)C2(C)CN(C)C2)cc1 [Example 570]	7.18
CN1CC(C)([C@](O)(c2ccc(C(F)(F)F)cc2)c2cncc(-c3noc(C(C)(C)O)n3)c2)C1 [Example 571]	5.92
CN1CC(C)([C@](O)(c2ccc(CC(F)(F)F)cc2)c2cncc(-c3noc(C(C)(C)O)n3)c2)C1 [Example 572]	6.83
CC(C)Cc1ccc([C@](O)(c2cncc(-c3noc(C(C)(C)O)n3)c2)C2(C)CN(C)C2)cc1 [Example 573]	7.12
CN1CC(C)([C@](O)(c2ccc(OC3CCC3)cc2)c2cncc(-c3noc(C(C)(C)O)n3)c2)C1 [Example 574]	5.87
C=C(C)c1ccc([C@](O)(c2cncc(-c3noc(C(C)(C)O)n3)c2)C2(C)CN(C)C2)cc1 [Example 575]	6.99
CC(=O)N1CCC(c2nc(-c3cncc([C@@](O)(c4ccc(CC(F)(F)F)cc4)C4(C)CN(C)C4)c3)no2)CC1 [Example 576]	6.57

SMILES	pIC50
CCCc1ccc([C@](O)(c2cncc(-c3noc(C4CCN(C(C)=O)CC4)n3)c2)C2(C)CN(C)C2)cc1 [Example 577]	7.18
CC(=O)N1CCC(c2nc(-c3cncc([C@@](O)(c4ccc(C(C)C)cc4)C4(C)CN(C(C)C)C4)c3)no2)CC1 [Example 578, 1-[4-(3-{5-[(R)-Hydroxy-(1-isopropyl-3-methyl-azetidin-3-yl)-(4-isopropyl-phenyl)-methyl]-pyridin-3-yl}-[1,2,4]oxadiazol-5-yl)-piperidin-1-yl]-ethanone]	7.01
CC(=O)N1CCC(c2nc(-c3cncc([C@@](O)(c4ccc(C(C)C)cc4)C4(C)CN(CC(F)F)C4)c3)no2)CC1 [Example 579, 1-[4-(3-{5-[(R)-[1-(2,2-Difluoro-ethyl)-3-methyl-azetidin-3-yl]-hydroxy-(4-isopropyl-phenyl)-methyl]-pyridin-3-yl}-[1,2,4]oxadiazol-5-yl)-piperidin-1-yl]-ethanone]	6.39
CC(=O)N1CCC(c2nc(-c3cncc([C@@](O)(c4ccc(C(C)C)cc4)C4(C)CN(CCO)C4)c3)no2)CC1 [Example 580, 1-[4-(3-{5-[(R)-Hydroxy-[1-(2-hydroxy-ethyl)-3-methyl-azetidin-3-yl]-(4-isopropyl-phenyl)-methyl]-pyridin-3-yl}[1,2,4]oxadiazol-5-yl)-piperidin-1-yl]-ethanone]	6.53
CC(=O)N1CCC(c2nc(-c3cncc([C@@](O)(c4ccc(C(C)C)cc4)C4(C)CN(CC5CC5)C4)c3)no2)CC1 [Example 581]	6.95
COCCN1CC(C)([C@](O)(c2ccc(C(C)C)cc2)c2cncc(-c3noc(C4CCN(C(C)=O)CC4)n3)c2)C1 [Example 582]	6.31
CC(=O)N1CCC(c2nc(-c3cncc([C@@](O)(c4ccc(C(C)C)cc4)C4(C)CN(CCC(F)(F)F)C4)c3)no2)CC1 [Example 583]	6.62
CCCN1CC(C)([C@](O)(c2ccc(C(C)C)cc2)c2cncc(-c3noc(C4CCN(C(C)=O)CC4)n3)c2)C1 [Example 584]	6.89
CCN1CC(C)([C@](O)(c2ccc(C(C)C)cc2)c2cncc(-c3noc(C4CCN(C(C)=O)CC4)n3)c2)C1 [Example 585]	6.94
CC(=O)N1CCC(C#Cc2cncc([C@@](O)(c3ccc(C(C)C)cc3)C3(C)CN(C)C3)c2)CC1 [Example 586]	7.17
CC(C)c1ccc([C@](O)(c2cncc(C#CC(C)(O)C(F)(F)F)c2)C2(C)CN(C)C2)cc1 (stereo partly shown) [Example 587]	7.83
CC(C)c1ccc([C@](O)(c2cncc(C#CC(C)(C)NC(=O)C3CC3)c2)C2(C)CN(C)C2)cc1 [Example 588]	6.92
CC(C)C(=O)NC(C)(C)C#Cc1cncc([C@@](O)(c2ccc(C(C)C)cc2)C2(C)CN(C)C2)c1 [Example 589]	6.81
COCC(=O)NC(C)(C)C#Cc1cncc([C@@](O)(c2ccc(C(C)C)cc2)C2(C)CN(C)C2)c1 [Example 590]	6.63
CC(C)c1ccc([C@](O)(c2cncc(C#CC(C)(C)N3CCOC3=O)c2)C2(C)CN(C)C2)cc1 [Example 591]	7.15
CC(C)c1ccc([C@](O)(c2cncc(C#CC(C)(C)N3CCCC3=O)c2)C2(C)CN(C)C2)cc1 [Example 592]	7.35
CC(C)c1ccc([C@](O)(c2cncc(C#CC(C)(C)N3CCN(C)C3=O)c2)C2(C)CN(C)C2)cc1 [Example 593]	7.29
CC(C)c1ccc([C@](O)(c2cncc(C#CC(C)(C)N3CCNC3=O)c2)C2(C)CN(C)C2)cc1 [Example 594]	7.34
